The values below come from patent US7108832B2, “Sterialization methods and apparatus which employ additive-containing supercritical carbon dioxide sterilant” (NovaSterilis Inc., priority 2003, dated 2006).

“And” between values parts separate entries of the source, which are not always exact repeats. Identical values can stand only once.

The subject of experiment [1] is B. stearothermophilus spores. The experiment is described as follows: Comparative additives in supercritical CO2 sterilization (Example 7). It is filed as cell-based. The conditions noted are these: 1.0 vol. %.
Experiment [2] deals with B. stearothermophilus spores. The experiment is described as follows: Inactivation of B. stearothermophilus spores, Dillow '864 method with and without additive (Example 1). It is filed as cell-based. The settings on record: 1500–3000 psi, 3 cycles, agitation random/directional +/−, 60 °C, 2 hrs, initial 2.3 × 10^6 CFU/ml. An excerpt: The effects of using an additive in accordance with the present invention was compared using the method described by U.S. Pat. No. 6,149,864 to Dillow et al for inactivating B. stearothermophilus spores. […] In contrast, a greater than 6 log reduction was achieved using the method of the present invention (Ex. B). The additive was placed on a cotton ball and inserted in the chamber prior to closure. No further additive was used.

In experiment [3] the test system is B. stearothermophilus spores. The experiment is described as follows: Sterilization of B. stearothermophilus spores with additive-containing supercritical CO2, residual CFU count (Example 2). The experiment is classed as cell-based. The settings on record: 4 mL additive + 6 mL water, 50° C., 2000 to 1100 psi, 3 cycles; multiple evaluations. The protocol: The apparatus generally depicted in FIGS. 1 and 2 was employed for this Example. A sample of B. stearothermophilus spores (1 mL) of greater than 10^6 CFU/mL was placed in 16 mm diameter test tubes in a stainless steel basket. Trifluoroacetic acid (4 mL) was transferred by syringe onto the surface of a cotton ball placed in the basket and water (6 mL) was placed at bottom of vessel. The basket was then loaded into the 600 mL reactor vessel. The reactor vessel was heated to 50° C. and equilibrated with CO2 at atmospheric pressure. The stirring and agitation mechanisms were activated and the reactor vessel pressurized to 2000 psi for 40 minutes. The CO2 pressure was then allowed to drop to 1100 psi at a rate of 300 psi/minute. Agitation by means of vibration of the vessel was carried out for 1 minute.
The pressurization/stirring/agitation/depressurization process was repeated a total of three times. After the third cycle, a series of three flushing cycles to remove the additive was performed by pressurizing and partial de-pressurizing the reactor vessel using CO2. The stirring was stopped and the basket was removed from the reactor vessel. The residual CFUs were counted after serial dilution and culturing of both treated and untreated controls.

In a further experiment the test system is bacterial spores. The experiment in a line: Sterility assay of fresh or freeze-dried bone samples after treatment (Example 4). The experiment is classed as cell-based. The conditions noted are these: 4 mL additive, 50° C., 3000 to 1500 psi, 3 cycles of 40 minutes. The protocol:
Using the equipment and procedure in Example 1, samples of fresh or freeze-dried bone (1 cm×1 cm×0.5 cm) were placed into 16 mm test tubes in a stainless steel basket. Trifluoroacetic acid (4 mL) was transferred by syringe onto the surface of a cotton ball placed in basket, and the basket then loaded into the 600 mL reactor vessel. The reactor vessel was heated to 50° C. and equilibrated with CO2 at atmospheric pressure. The stirring and agitation mechanisms were activated and vessel pressurized to 3000 psi for 40 minutes. Agitation is carried out for 5 minutes. The CO2 pressure was then allowed to drop to 1500 psi at a rate of 300 psi/minute.
The pressurization/stirring/agitation/depressurization process was repeated a total of 3 times. After the third cycle, a series of three flushing cycles to remove the additive was performed by pressurizing and de-pressurizing the reactor vessel using CO2. The stirring was stopped and the basket was removed from the reactor vessel. Bone samples were assayed for sterility and compression strength with the results being that there was sterilization (i.e., >10^6 reduction in bacterial spores), and there was no reduction in compression strength attributes.

Experiment [4] has as its system B. subtilis spore/vegetative preparations. The experiment in a line: Sterilization of B. subtilis spore/vegetative preparations with additive-containing supercritical CO2, residual CFU count (Examples 3A-3D, 6A, 6B). It is filed as cell-based. The conditions noted are these: for kill of bioindicators: constant 2000 psi rather than cycling. How it is done:
A sample of B. subtilis spore/vegetative preparations (1 mL) of greater than 10^6 CFU/mL was placed in a 16 mm diameter test tube in a stainless steel basket. Acetic acid (6 mL) was transferred by syringe onto the surface of a cotton ball placed in the basket, which was then loaded into the 600 mL reactor vessel. The reactor vessel was heated to 50° C. and equilibrated with CO2 at atmospheric pressure. […] Agitation was carried out for 1 minute.
After depressurizing the reactor vessel, more acetic acid (4 mL) was introduced at ambient pressure to the additive loop via port 18 (FIG. 1). The loop was sealed and pressurized to 3000 psi. The reactor vessel was the re-pressurized through the additive loop to 3000 psi such that acetic acid was transported into the reactor vessel.
The pressurization/stirring/agitation/depressurization/additive addition process was repeated a total of three times. After the third cycle, a series of three flushing cycles to remove the additive was performed by pressurizing and de-pressurizing the reactor vessel using CO2. The stirring was stopped and the basket was removed from the reactor vessel. The residual CFUs were counted after serial dilution and culturing of both treated and untreated controls.

The test system of experiment [5] is B. stearothermophilus spores. The experiment is described as follows: Linearity of inactivation, B. stearothermophilus spore bioindicators in TYVEK pouches (Example 8). The experiment is classed as cell-based. The conditions noted are these: 4.5% peracetic acid at 0.02 vol. % + water at 1 vol. %. How it is done:
Example 2B was repeated except that 4.5% peracetic acid was initially added to the vessel at 0.02 vol. % on a cotton ball and water was added on a separate cotton ball at 1 vol. %. B. stearothermophilus spores were inoculated onto glass fiber filters, allowed to dry and packaged into pouches formed of nonwoven fine polyethylene fibers (1073B TYVEK® brand material) and served as bioindicators. Total CFUs per filter were greater than 10^6. The bioindicators were exposed to differing times of treatment with 4 replicates per time point. The total remaining CFUs were then determined and a plot was generated of log reduction in CFUs over time (FIG. 3).

In the next experiment the test system is B. subtilis spores. The settings on record: method of the Dillow et al '864 patent, other investigators (Spilimbergo et al 2002); cited from earlier work.

Consider `O=C(O)CC(O)(CC(=O)O)C(=O)O` [50% Citric acid, Citric acid], for which, in experiment [1] (60 C, 2 hours, 3 cycles), the Log reduction is recorded as 0.03–0.62 log.
Turning to `CCO` [Ethanol], in experiment [1] (60–50 C, 3 hours, 4 cycles), the Log reduction is 1.2–4.0 log.
On to `O` [Ex. A, Water], for which, in experiment [2], the “Final CFU/ml” value is on record as 2.1 × 10^5 CFU/ml; the “Log reduction” value is 1 log and 1.0 log.
For the compound `O=CO` [Formic acid], the Log reduction in experiment [1] (50 C, 2 hours, 3 cycles) is recorded as 0 log.
`OCl` [HOCl]: the Log reduction in experiment [1] (60 C, 3 hours, 4 cycles) was 0–0.50 log.
`O=C(O)CC(=O)O` [Malonic acid]: the Log reduction in experiment [1] (50 C, 2 hours, 3 cycles) was 0–0.12 log.
Take `O=P(O)(O)O` [Phosphoric acid]: the Log reduction in experiment [1] (50 C, 2 hours, 3 cycles) is reported as 0.18–0.25 log.
For the compound `O=C(O)CCC(=O)O` [Succinic acid], the Log reduction in experiment [1] (50 C, 2 hours, 3 cycles) is listed as 0.25–0.29 log.
With `O=C(O)C(F)(F)F` [Trifluoroacetic acid], in experiment [3], the kill of bioindicators result was “Complete kill”. Moreover, the “reduction in bacterial spores (sterility of bone samples)” value with bacterial spores is given as > 10^6.
Regarding `CC(=O)O` [acetic acid], the “kill of the B. subtilis present” value in experiment [4] (Example 3B: as 3A, samples with less than 10^6 CFU/ml) was “total kill”. Also, the “log reduction in CFUs extrapolated for greater than 10^6 CFU/ml” value in experiment [4] (Example 3B: extrapolated from total kill of samples with less than 10^6 CFU/ml) was 6 log. Besides, the kill of bioindicators result in experiment [4] (Example 3D: as 3A) is “Compete kill”.
As to `CC(=O)OO` [peracetic acid], the kill of bioindicators entry in experiment [4] (Example 6B: as 6A) is reported as “Complete kill”. Further, in experiment [5] (bioindicators in TYVEK pouches), the “inactivation rates (log reduction in CFUs over time)” value was “linear”. Further, the “time for a single log reduction in the bioindicator” value in experiment [5] (spores on glass fiber filters in TYVEK pouches, >10^6 CFUs per filter, 4 replicates per time point) is 14.24 minutes.
For `O=C=O` [supercritical carbon dioxide, carbon dioxide], the “log reduction in B. subtilis spores” value in the experiment with B. subtilis spores was 3.5 log.
